# System: test plant species
# Experiment: Post-emergent herbicidal activity test (greenhouse, foliar spray, visual growth reduction)
# Assay type: in vivo
# Details: post-emergence, 336 h, ALOMY: blackgrass (Alopecurus myosuroides), 140 g ai/ha, 14 days after application, read-out: Visual Growth Reduction (%) 14 Days After Application, ALOMY
# How it was run: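 Greenhouse plants at first–second true leaf stage sprayed overhead at 187 L/ha with compound in acetone/water/isopropanol/DMSO/crop oil/X-77 carrier; controls received solvent blank. Injury rated visually after 14 d on a 0–100% scale versus untreated and control plants, converted to growth reduction.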
row,SMILES,pest or weed control at 140 g/ha [%]
1,"COC(=O)c1nc(-c2ccc3c(c2)OC(F)(F)O3)ccc1Cl [F64, Methyl 3-chloro-6-(2,2-difluorobenzo[d] [1,3]dioxol-5-yl) picolinate]",0 to 29
2,"COc1c(Cl)ccc(-c2nc(C(=O)O)c(Cl)c(Cl)c2F)c1F [F73, 3,4-Dichloro-6-(4-chloro-2-fluoro-3-methoxyphenyl)-5-fluoropicolinic acid]",0 to 29

# Same assay, conditions: post-emergence, 336 h, AMARE: redroot pigweed (Amaranthus retroflexus), 140 g ai/ha, 14 days after application, read-out: Visual Growth Reduction (%) 14 Days After Application, AMARE
row,SMILES,pest or weed control at 140 g/ha [%]
1,"COC(=O)c1nc(-c2ccc3c(c2)OC(F)(F)O3)ccc1Cl [F64, Methyl 3-chloro-6-(2,2-difluorobenzo[d] [1,3]dioxol-5-yl) picolinate]",45 to 59
2,"COc1c(Cl)ccc(-c2nc(C(=O)O)c(Cl)c(Cl)c2F)c1F [F73, 3,4-Dichloro-6-(4-chloro-2-fluoro-3-methoxyphenyl)-5-fluoropicolinic acid]",0 to 29

# Same assay, conditions: post-emergence, 336 h, AVEFA: wild oat (Avena fatua), 140 g ai/ha, 14 days after application, read-out: Visual Growth Reduction (%) 14 Days After Application, AVEFA
row,SMILES,pest or weed control at 140 g/ha [%]
1,"COC(=O)c1nc(-c2ccc3c(c2)OC(F)(F)O3)ccc1Cl [F64, Methyl 3-chloro-6-(2,2-difluorobenzo[d] [1,3]dioxol-5-yl) picolinate]",0 to 29
2,"COc1c(Cl)ccc(-c2nc(C(=O)O)c(Cl)c(Cl)c2F)c1F [F73, 3,4-Dichloro-6-(4-chloro-2-fluoro-3-methoxyphenyl)-5-fluoropicolinic acid]",0 to 29

# Same assay, conditions: post-emergence, 336 h, CHEAL: lambsquarters (Chenopodium album), 140 g ai/ha, 14 days after application, read-out: Visual Growth Reduction (%) 14 Days After Application, CHEAL
row,SMILES,pest or weed control at 140 g/ha [%]
1,"COC(=O)c1nc(-c2ccc3c(c2)OC(F)(F)O3)ccc1Cl [F64, Methyl 3-chloro-6-(2,2-difluorobenzo[d] [1,3]dioxol-5-yl) picolinate]",60 to 74
2,"COc1c(Cl)ccc(-c2nc(C(=O)O)c(Cl)c(Cl)c2F)c1F [F73, 3,4-Dichloro-6-(4-chloro-2-fluoro-3-methoxyphenyl)-5-fluoropicolinic acid]",95 to 100

# Same assay, conditions: post-emergence, 336 h, CIRAR: canada thistle (Cirsium arvense), 140 g ai/ha, 14 days after application, read-out: Visual Growth Reduction (%) 14 Days After Application, CIRAR
row,SMILES,pest or weed control at 140 g/ha [%]
1,"COC(=O)c1nc(-c2ccc3c(c2)OC(F)(F)O3)ccc1Cl [F64, Methyl 3-chloro-6-(2,2-difluorobenzo[d] [1,3]dioxol-5-yl) picolinate]",0 to 29
2,"COc1c(Cl)ccc(-c2nc(C(=O)O)c(Cl)c(Cl)c2F)c1F [F73, 3,4-Dichloro-6-(4-chloro-2-fluoro-3-methoxyphenyl)-5-fluoropicolinic acid]",0 to 29

# Same assay, conditions: post-emergence, 336 h, CYPES: yellow nutsedge (Cyperus esculentus), 140 g ai/ha, 14 days after application, read-out: Visual Growth Reduction (%) 14 Days After Application, CYPES
row,SMILES,pest or weed control at 140 g/ha [%]
1,"COC(=O)c1nc(-c2ccc3c(c2)OC(F)(F)O3)ccc1Cl [F64, Methyl 3-chloro-6-(2,2-difluorobenzo[d] [1,3]dioxol-5-yl) picolinate]",60 to 74
2,"COc1c(Cl)ccc(-c2nc(C(=O)O)c(Cl)c(Cl)c2F)c1F [F73, 3,4-Dichloro-6-(4-chloro-2-fluoro-3-methoxyphenyl)-5-fluoropicolinic acid]",0 to 29

# Same assay, conditions: post-emergence, 336 h, DIGSA: crabgrass (Digitaria sanguinalis), 140 g ai/ha, 14 days after application, read-out: Visual Growth Reduction (%) 14 Days After Application, DIGSA
row,SMILES,pest or weed control at 140 g/ha [%]
1,"COC(=O)c1nc(-c2ccc3c(c2)OC(F)(F)O3)ccc1Cl [F64, Methyl 3-chloro-6-(2,2-difluorobenzo[d] [1,3]dioxol-5-yl) picolinate]",85 to 94
2,"COc1c(Cl)ccc(-c2nc(C(=O)O)c(Cl)c(Cl)c2F)c1F [F73, 3,4-Dichloro-6-(4-chloro-2-fluoro-3-methoxyphenyl)-5-fluoropicolinic acid]",0 to 29

# Same assay, conditions: post-emergence, 336 h, ECHCG: barnyardgrass (Echinochloa crus-galli), 140 g ai/ha, 14 days after application, read-out: Visual Growth Reduction (%) 14 Days After Application, ECHCG
row,SMILES,pest or weed control at 140 g/ha [%]
1,"COC(=O)c1nc(-c2ccc3c(c2)OC(F)(F)O3)ccc1Cl [F64, Methyl 3-chloro-6-(2,2-difluorobenzo[d] [1,3]dioxol-5-yl) picolinate]",0 to 29
2,"COc1c(Cl)ccc(-c2nc(C(=O)O)c(Cl)c(Cl)c2F)c1F [F73, 3,4-Dichloro-6-(4-chloro-2-fluoro-3-methoxyphenyl)-5-fluoropicolinic acid]",0 to 29

# Same assay, conditions: post-emergence, 336 h, IPOHE: ivy-leaf morning glory (Ipomoea hederacea), 140 g ai/ha, 14 days after application, read-out: Visual Growth Reduction (%) 14 Days After Application, IPOHE
row,SMILES,pest or weed control at 140 g/ha [%]
1,"COC(=O)c1nc(-c2ccc3c(c2)OC(F)(F)O3)ccc1Cl [F64, Methyl 3-chloro-6-(2,2-difluorobenzo[d] [1,3]dioxol-5-yl) picolinate]",95 to 100

# Same assay, conditions: post-emergence, 336 h, KCHSC: kochia (Bassia scoparia), 140 g ai/ha, 14 days after application, read-out: Visual Growth Reduction (%) 14 Days After Application, KCHSC
row,SMILES,pest or weed control at 140 g/ha [%]
1,"COC(=O)c1nc(-c2ccc3c(c2)OC(F)(F)O3)ccc1Cl [F64, Methyl 3-chloro-6-(2,2-difluorobenzo[d] [1,3]dioxol-5-yl) picolinate]",0 to 29

# Same assay, conditions: post-emergence, 336 h, ORYSA: rice (Oryza sativa), 140 g ai/ha, 14 days after application, read-out: Visual Growth Reduction (%) 14 Days After Application, ORYSA
row,SMILES,pest or weed control at 140 g/ha [%]
1,"COC(=O)c1nc(-c2ccc3c(c2)OC(F)(F)O3)ccc1Cl [F64, Methyl 3-chloro-6-(2,2-difluorobenzo[d] [1,3]dioxol-5-yl) picolinate]",0 to 29
2,"COc1c(Cl)ccc(-c2nc(C(=O)O)c(Cl)c(Cl)c2F)c1F [F73, 3,4-Dichloro-6-(4-chloro-2-fluoro-3-methoxyphenyl)-5-fluoropicolinic acid]",0 to 29

# Same assay, conditions: post-emergence, 336 h, SETFA: giant foxtail (Setaria faberi), 140 g ai/ha, 14 days after application, read-out: Visual Growth Reduction (%) 14 Days After Application, SETFA
row,SMILES,pest or weed control at 140 g/ha [%]
1,"COC(=O)c1nc(-c2ccc3c(c2)OC(F)(F)O3)ccc1Cl [F64, Methyl 3-chloro-6-(2,2-difluorobenzo[d] [1,3]dioxol-5-yl) picolinate]",0 to 29
2,"COc1c(Cl)ccc(-c2nc(C(=O)O)c(Cl)c(Cl)c2F)c1F [F73, 3,4-Dichloro-6-(4-chloro-2-fluoro-3-methoxyphenyl)-5-fluoropicolinic acid]",0 to 29

# Same assay, conditions: post-emergence, 336 h, SORVU: grain sorghum (Sorghum vulgare), 140 g ai/ha, 14 days after application, read-out: Visual Growth Reduction (%) 14 Days After Application, SORVU
row,SMILES,pest or weed control at 140 g/ha [%]
1,"COC(=O)c1nc(-c2ccc3c(c2)OC(F)(F)O3)ccc1Cl [F64, Methyl 3-chloro-6-(2,2-difluorobenzo[d] [1,3]dioxol-5-yl) picolinate]",60 to 74
2,"COc1c(Cl)ccc(-c2nc(C(=O)O)c(Cl)c(Cl)c2F)c1F [F73, 3,4-Dichloro-6-(4-chloro-2-fluoro-3-methoxyphenyl)-5-fluoropicolinic acid]",0 to 29

# Same assay, conditions: post-emergence, 336 h, STEME: common chickweed (Stellaria media), 140 g ai/ha, 14 days after application, read-out: Visual Growth Reduction (%) 14 Days After Application, STEME
row,SMILES,pest or weed control at 140 g/ha [%]
1,"COC(=O)c1nc(-c2ccc3c(c2)OC(F)(F)O3)ccc1Cl [F64, Methyl 3-chloro-6-(2,2-difluorobenzo[d] [1,3]dioxol-5-yl) picolinate]",0 to 29
2,"COc1c(Cl)ccc(-c2nc(C(=O)O)c(Cl)c(Cl)c2F)c1F [F73, 3,4-Dichloro-6-(4-chloro-2-fluoro-3-methoxyphenyl)-5-fluoropicolinic acid]",0 to 29

# Same assay, conditions: post-emergence, 336 h, TRZAS: wheat, spring (Triticum aestivum), 140 g ai/ha, 14 days after application, read-out: Visual Growth Reduction (%) 14 Days After Application, TRZAS
row,SMILES,pest or weed control at 140 g/ha [%]
1,"COC(=O)c1nc(-c2ccc3c(c2)OC(F)(F)O3)ccc1Cl [F64, Methyl 3-chloro-6-(2,2-difluorobenzo[d] [1,3]dioxol-5-yl) picolinate]",0 to 29
2,"COc1c(Cl)ccc(-c2nc(C(=O)O)c(Cl)c(Cl)c2F)c1F [F73, 3,4-Dichloro-6-(4-chloro-2-fluoro-3-methoxyphenyl)-5-fluoropicolinic acid]",0 to 29
